What was measured:
Canidae = settings: chronic; duration: 53 weeks; oral; Dog Other; organ weight
Apis mellifera = settings: acute, mortality
Folsomia candida = settings: chronic/long-term; duration: 28 days
Oncorhynchus mykiss = settings: chronic/long-term; duration: 88 days; other
Hypoaspis aculeifer = settings: chronic/long-term; duration: 14 days
Lepomis macrochirus = settings: acute; duration: 96 hours; mortality
Daphnia magna = settings: chronic/long-term; duration: 21 days; reproduction

With `Cc1ccc(C(C)NC(=O)[C@@H](NC(=O)OC(C)C)C(C)C)cc1` (stereo not given in full) [Iprovalicarb] as the compound, how does the LOAEL (Canidae) read?
The LOAEL was 3 mg/kg-day.

And the LD50 (Apis mellifera; dermal)?
Its LD50 is > 200 µg/piece.

And the LD50 (Apis mellifera; oral, unspecified)?
The LD50 was > 199 µg/piece.

What about the NOEC (Folsomia candida) of the same compound?
The NOEC was ≥ 1000 mg/kg.

And the NOEC (Oncorhynchus mykiss)?
The NOEC was 5 mg/L.

And the NOEC (Hypoaspis aculeifer)?
Its NOEC is ≥ 1000 mg/kg.

What about the LC50 (Lepomis macrochirus) of the same compound?
The LC50 was > 20.7 µg/mL.

And the LC50 (Tagia sp.; acute, duration: 14 days, mortality)?
The LC50 was > 500 mg/kg.

What about the NOEC (Tagia sp.; chronic/long-term, duration: 8 weeks) of the same compound?
Its NOEC is ≥ 64 mg/kg.

What about the LD50 (Rattus norvegicus; acute, oral, mortality) of the same compound?
Its LD50 is > 5000 mg/kg-day.

What about the NOAEL (Rattus norvegicus; chronic) of the same compound?
Its NOAEL is 146 mg/kg-day.

What about the LD50 (Colinus virginianus; acute, oral) of the same compound?
The LD50 was > 2000 mg/kg-day.

And the LC50 (Colinus virginianus; acute, oral, diet)?
The LC50 was > 1350 mg/kg-day.

And the NOAEL (Colinus virginianus; reproduction developmental)?
Its NOAEL is 161 mg/kg-day.

What about the NOEC (Daphnia magna) of the same compound?
The NOEC was 1.89 mg/L.
